Laboratory results published in patent US20160108027A1, “SUBSTITUTED BENZOXAZOLES” (BAYER PHARMA AKTIENGESELLSCHAFT, priority 2013, published 2016).

Experiments:
[1] = target: T1, thrombin (Homo sapiens, UniProt P00734); assay: Measurement of the thrombin inhibition in buffer; type: biochemical; conditions: human thrombin 0.06 nmol/l in Tris buffer pH 7.4, 22° C., substrate Boc-Asp(OBzl)-Pro-Arg-AMC; in some cases means of individual determinations
Experimental: To determine the thrombin inhibition of the substances listed above, a biochemical test system is constructed in which the conversion of a thrombin substrate is used for determining the enzymatic activity of human thrombin. Here, thrombin cleaves aminomethylcoumarin, which is measured fluorescently, from the peptic substrate. The determinations are carried out in microtitre plates.
Substances to be tested are dissolved in various concentrations in dimethyl sulphoxide and incubated for 15 min with human thrombin (0.06 nmol/l dissolved in 50 mmol/l of Tris buffer [C,C,C-tris(hydroxymethyl)aminomethane], 100 mmol/l of sodium chloride, 0.1% BSA [bovine serum albumin], pH 7.4) at 22° C. The substrate (5 μmol/l Boc-Asp(OBzl)-Pro-Arg-AMC from Bachem) is then added. After 30 min of incubation, the sample is excited at a wavelength of 360 nm and the emission is measured at 460 nm. The measured emissions of the test mixtures with test substance are compared to the control mixtures without test substance (only dimethyl sulphoxide instead of test substance in dimethyl sulphoxide) and IC50 values are calculated from the concentration/activity relationships. Representative activity data from this test are given in Table 1 below (in some cases as means of individual determinations): […]

[2] = target: T1, thrombin; assay: Determination of the thrombin-inhibitory activity in plasma samples (ecarin-activated); type: biochemical; conditions: citrate plasma, ecarin activation, fluorogenic thrombin substrate; in some cases means of individual determinations
Experimental: To determine the inhibition of thrombin in plasma samples, plasma […] is activated by ecarin. Thrombin activity and/or its inhibition by potential inhibitors is/are then measured fluorenscently by addition of a substrate.
The substances to be tested are dissolved in various concentrations in dimethyl sulphoxide and diluted with water. In white 96-well flat-bottomed plates, 20 μl of substance dilution are mixed with 20 μl of ecarin solution (ecarin reagent, from Sigma E-0504, final concentration 20 mU per reaction) in Ca buffer (200 mM Hepes+560 mM sodium chloride+10 mM calcium chloride+0.4% PEG) or with 20 μl of Ca buffer (as unstimulated control). Furthermore, 20 μl of fluorogenic thrombin substrate (from Bachem 1-1120, final concentration 50 μmol/1) and 20 μl of citrate plasma (from Octapharma) are added, and the mixture is homogenized well. The plate is measured in a SpectraFluorplus Reader using a 360 nm excitation filter and a 465 nm emission filter every minute over 20 minutes. […] Representative activity data from this test are given in Table 2 below (in some cases as means of individual determinations): […]

Row | IC50 [1] [nM] | IC50 [2] [nM] | SMILES
1 | 4.5 | 14 | CCC1C(=O)NC2(CC2)CN1C(=O)c1cc(OC)c2oc(NCc3cc(Cl)ccn3)nc2c1 (single isomer, unassigned) [Example 79, 7-[(2-{[(4-Chloropyridin-2-yl)methyl]amino}-7-methoxy-1,3-benzoxazol-5-yl)carbonyl]-6-ethyl-4,7-diazaspiro[2.5]octan-5-one]
2 | 19 | 36 | COc1cc(C(=O)N2CC3(CC3)NC(=O)C2C)cc2nc(NCc3cc(Cl)ccn3)oc12 (racemic) [Example 76, 7-[(2-{[(4-Chloropyridin-2-yl)methyl]amino}-7-methoxy-1,3-benzoxazol-5-yl)carbonyl]-6-methyl-4,7-diazaspiro[2.5]octan-5-one]
3 | 24 | 61 | COc1cc(C(=O)N2CC(C)(C)OCC2CC(C)O)cc2nc(NCc3cc(Cl)ccn3)oc12 (single isomer, unassigned) [Example 65, (2-{[(4-Chloropyridin-2-yl)methyl]amino}-7-methoxy-1,3-benzoxazol-5-yl) [5-(2-hydroxypropyl)-2,2-dimethylmorpholin-4-yl]methanone]
4 | 17 | 47 | COc1cc(C(=O)N2CC(C)CCC2CCO)cc2nc(NCc3cc(Cl)ccn3)oc12 (single isomer, unassigned) [Example 85, (2-{[(4-Chloropyridin-2-yl)methyl]amino}-7-methoxy-1,3-benzoxazol-5-yl) [2-(2-hydroxyethyl)-5-methylpiperidin-1-yl]methanone]
5 | 13 | 22 | COc1cc(C(=O)N2CC(C)(C)OCC2(C)CO)cc2nc(NCc3cc(Cl)ccn3)oc12 (racemic) [Example 38, (2-{[(4-Chloropyridin-2-yl)methyl]amino}-7-methoxy-1,3-benzoxazol-5-yl) [5-(hydroxymethyl)-2,2,5-trimethylmorpholin-4-yl]methanone]
6 | 24 | 100 | COc1cc(C(=O)N2CCOC(C)(CC(C)O)C2)cc2nc(NCc3cc(Cl)ccn3)oc12 (single isomer, unassigned) [Example 61, (2-{[(4-Chloropyridin-2-yl)methyl]amino}-7-methoxy-1,3-benzoxazol-5-yl) [2-(2-hydroxypropyl)-2-methylmorpholin-4-yl]methanone]
7 | 11 | 20 | COc1cc(C(=O)N2CC(C)(C)OCC2CC(C)O)cc2nc(NCc3cc(Cl)ccn3)oc12 (single isomer, unassigned) [Example 63, (2-{[(4-Chloropyridin-2-yl)methyl]amino}-7-methoxy-1,3-benzoxazol-5-yl) [5-(2-hydroxypropyl)-2,2-dimethylmorpholin-4-yl]methanone]
8 | 36 | 62 | COc1cc(C(=O)N2CC(C)(C)NC(=O)C2CC#N)cc2nc(NCc3cc(Cl)ccn3)oc12 (racemic) [Example 83, {1-[(2-{[(4-Chloropyridin-2-yl)methyl]amino}-7-methoxy-1,3-benzoxazol-5-yl)carbonyl]-5,5-dimethyl-3-oxopiperazin-2-yl}acetonitrile]
9 | 6.8 | 13 | COc1cc(C(=O)N2CC(C)(C)OCC2C(C)O)cc2nc(NCc3cc(Cl)ccn3)oc12 (single isomer, unassigned) [Example 95, (2-{[(4-Chloropyridin-2-yl)methyl]amino}-7-methoxy-1,3-benzoxazol-5-yl) [5-(1-hydroxyethyl)-2,2-dimethylmorpholin-4-yl]methanone]
10 | 11 | 35 | COc1cc(C(=O)N2CC(C)(CCO)OCC2C(F)F)cc2nc(NCc3cc(Cl)ccn3)oc12 (centres unmarked) [Example 54, (2-{[(4-Chloropyridin-2-yl)methyl]amino}-7-methoxy-1,3-benzoxazol-5-yl) [5-(difluormethyl)-2-(2-hydroxyethyl)-2-methylmorpholin-4-yl]methanone]
11 | 32 | 48 | COc1cc(C(=O)N2CC3CCN3C(=O)C2C)cc2nc(NCc3cc(Cl)ccn3)oc12 (single isomer, unassigned) [Example 75, 4-[(2-{[(4-Chloropyridin-2-yl)methyl]amino}-7-methoxy-1,3-benzoxazol-5-yl)carbonyl]-3-methyl-1,4-diazabicyclo[4.2.0]octan-2-one]
12 | 29 | 37 | COc1cc(C(=O)N2CC(C)OCC2CCO)cc2nc(NCc3cc(Cl)ccn3)oc12 (single isomer, unassigned) [Example 72, (2-{[(4-Chloropyridin-2-yl)methyl]amino}-7-methoxy-1,3-benzoxazol-5-yl) [5-(2-hydroxyethyl)-2-methylmorpholin-4-yl]methanone]
13 | 17 | 27 | COc1cc(C(=O)N2CC(C)(C)OC[C@H]2CCO)cc2nc(NCc3cc(Cl)ccn3)oc12 [Example 58, (2-{[(4-Chloropyridin-2-yl)methyl]amino}-7-methoxy-1,3-benzoxazol-5-yl)[(5R)-5-(2-hydroxyethyl)-2,2-dimethylmorpholin-4-yl]methanone]
14 | 10 | 55 | COc1cc(C(=O)N2CC(C)(CCO)OCC2CF)cc2nc(NCc3cc(Cl)ccn3)oc12 (centres unmarked) [Example 21, (2-{[(4-Chloropyridin-2-yl)methyl]amino}-7-methoxy-1,3-benzoxazol-5-yl) [5-(fluoromethyl)-2-(2-hydroxyethyl)-2-methylmorpholin-4-yl]methanone]
15 | 33 | 52 | COc1cc(C(=O)N2CCCC2(C)C(=O)N2CC(F)C2)cc2nc(NCc3cc(Cl)ccn3)oc12 (single isomer, unassigned) [Example 17, (2-{[(4-Chloropyridin-2-yl)methyl]amino}-7-methoxy-1,3-benzoxazol-5-yl){2-[(3-fluoroazetidin-1-yl)carbonyl]-2-methylpyrrolidin-1-yl}methanone]
16 | 1 | 6.8 | COc1cc(C(=O)N2CC(C)(CC(C)O)OC[C@H]2C)cc2nc(NCc3cc(Cl)ccn3)oc12 (single isomer, unassigned) [Example 25]
17 | 5.2 | 24 | COc1cc(C(=O)N2CC(C)(CCO)OCC2COC(F)F)cc2nc(NCc3cc(Cl)ccn3)oc12 (single isomer, unassigned) [Example 60, (2-{[(4-Chloropyridin-2-yl)methyl]amino}-7-methoxy-1,3-benzoxazol-5-yl){5-[(difluoromethoxy)methyl]-2-(2-hydroxyethyl)-2-methylmorpholin-4-yl}methanone]
18 | 68 | 107 | COc1cc(C(=O)N2CC(C)(C)OCC2CC(C)O)cc2nc(NCc3cc(Cl)ccn3)oc12 (single isomer, unassigned) [Example 62, (2-{[(4-Chloropyridin-2-yl)methyl]amino}-7-methoxy-1,3-benzoxazol-5-yl) [5-(2-hydroxypropyl)-2,2-dimethylmorpholin-4-yl]methanone]
19 | 30 | 36 | COc1cc(C(=O)N2CCCC2(C)C(=O)N2CC(F)(F)C2)cc2nc(NCc3cc(Cl)ccn3)oc12 (single isomer, unassigned) [Example 16, (2-{[(4-Chloropyridin-2-yl)methyl]amino}-7-methoxy-1,3-benzoxazol-5-yl){2-[(3,3-difluoroazetidin-1-yl)carbonyl]-2-methylpyrrolidin-1-yl}methanone]
20 | 34 | 53 | COc1cc(C(=O)N2CC(C)OCC2(C)CO)cc2nc(NCc3cc(Cl)ccn3)oc12 (single isomer, unassigned) [Example 19, (2-{[(4-Chloropyridin-2-yl)methyl]amino}-7-methoxy-1,3-benzoxazol-5-yl) [5-(hydroxymethyl)-2,5-dimethylmorpholin-4-yl]methanone]
21 | 16 | 38 | COc1cc(C(=O)N2CC(C)OCC2CC(C)O)cc2nc(NCc3cc(Cl)ccn3)oc12 (single isomer, unassigned) [Example 67, (2-{[(4-Chloropyridin-2-yl)methyl]amino}-7-methoxy-1,3-benzoxazol-5-yl) [5-(2-hydroxypropyl)-2-methylmorpholin-4-yl]methanone]
22 | 39 | 57 | COc1cc(C(=O)N2CC(C)OCC2C(C)(C)O)cc2nc(NCc3cc(Cl)ccn3)oc12 (single isomer, unassigned) [Example 36, (2-{[(4-Chloropyridin-2-yl)methyl]amino}-7-methoxy-1,3-benzoxazol-5-yl) [5-(2-hydroxypropan-2-yl)-2-methylmorpholin-4-yl]methanone]
